In ChEMBL document CHEMBL1147148, “Cytotoxic withanolides from Tubocapsicum anomalum” (J Nat Prod, 2007):
Values after ≈ are worked out from the molar mass of the structure shown.

Key:
[1] = test system: A549; assay: Cytotoxicity against human A549 cells by MTT method; type: cell-based
[2] = test system: MDA-MB-231; assay: Cytotoxicity against human MDA-MB-231 cells by MTT method; type: cell-based
[3] = test system: MCF7; assay: Cytotoxicity against human MCF7 cells by MTT method; type: cell-based
[4] = test system: MRC5; assay: Cytotoxicity against human MRC5 cells by MTT method; type: cell-based
[5] = Cytotoxicity against human Hep3B cells by MTT method; type: cell-based, Hep 3B2
[6] = test system: HepG2; assay: Cytotoxicity against human HepG2 cells by MTT method; type: cell-based

Compound	IC50 [1] [µg/mL]	IC50 [2] [µg/mL]	IC50 [3] [µg/mL]	IC50 [4] [µg/mL]	IC50 [5] [µg/mL]	IC50 [6] [µg/mL]
CC1=C(C)C(=O)O[C@@H]([C@@H](C)[C@@]2(O)CC[C@H]3[C@@H]4C[C@H]5O[C@]56[C@@H](O)C=CC(=O)[C@]6(C)[C@H]4CC[C@@]32C)C1	0.88 (≈ 1.87 µM)	0.99 (≈ 2.1 µM)	1.98 (≈ 4.21 µM)	0.81 (≈ 1.72 µM)	0.8 (≈ 1.7 µM)	0.64 (≈ 1.36 µM)
CC1=C(C)C(=O)O[C@@H]([C@](C)(O)[C@@]2(O)CC[C@H]3[C@@H]4C[C@H]5O[C@]56[C@@H](O)C=CC(=O)[C@]6(C)[C@H]4CC[C@@]32C)C1	0.72 (≈ 1.48 µM)	0.71 (≈ 1.46 µM)	1.45 (≈ 2.98 µM)	1.89 (≈ 3.88 µM)	0.85 (≈ 1.75 µM)	0.49 (≈ 1.01 µM)
CC1=C(C)C(=O)O[C@@H]([C@@H](C)[C@@]2(O)CC[C@H]3[C@@H]4C[C@H](O)[C@]5(O)[C@@H](O)C=CC(=O)[C@]5(C)[C@H]4CC[C@@]32C)C1	8.01 (≈ 16.4 µM)	13.5 (≈ 27.6 µM)	> 20		7.19 (≈ 14.7 µM)	> 20
CC1=C(C)C(=O)O[C@@H]([C@](C)(O)[C@@]23O[C@@H]2C[C@H]2[C@@H]4C[C@H]5O[C@]56[C@@H](O)C=CC(=O)[C@]6(C)[C@H]4CC[C@@]23C)C1 [20-HYDROXYTUBOCAPSANOLIDE A]	1.42 (≈ 2.93 µM)	0.99 (≈ 2.04 µM)	1.77 (≈ 3.65 µM)	1.36 (≈ 2.81 µM)	0.99 (≈ 2.04 µM)	0.73 (≈ 1.51 µM)
CC1=C(C)[C@H](O)[C@H]([C@@H](C)[C@@]23O[C@@H]2C[C@H]2[C@@H]4C[C@H]5O[C@]56[C@@H](O)C=CC(=O)[C@]6(C)[C@H]4CC[C@@]23C)OC1=O [23-HYDROXYTUBOCAPSANOLIDE A]	0.79 (≈ 1.63 µM)	1.19 (≈ 2.46 µM)	2.05 (≈ 4.23 µM)	0.9 (≈ 1.86 µM)	0.49 (≈ 1.01 µM)	0.44 (≈ 0.908 µM)
C[C@@]12CC([C@@]3(O)CC[C@H]4[C@@H]5C[C@H]6O[C@]67[C@@H](O)C=CC(=O)[C@]7(C)[C@H]5CC[C@@]43C)[C@@H](C1)OC(=O)[C@]2(C)O (stereo partly drawn) [ANOMANOLIDE A]	1.01 (≈ 2.08 µM)	1.37 (≈ 2.82 µM)	2.31 (≈ 4.75 µM)	1.91 (≈ 3.93 µM)	3.63 (≈ 7.46 µM)	3.11 (≈ 6.39 µM)
C[C@@]12CC([C@@]3(O)CC[C@H]4[C@@H]5C[C@H](O)[C@]6(O)[C@@H](O)C=CC(=O)[C@]6(C)[C@H]5CC[C@@]43C)[C@@H](C1)OC(=O)[C@]2(C)O (stereo partly drawn) [ANOMANOLIDE B]	1.49 (≈ 2.95 µM)	0.7 (≈ 1.39 µM)	4.84 (≈ 9.59 µM)	0.2 (≈ 0.396 µM)	3.17 (≈ 6.28 µM)	0.97 (≈ 1.92 µM)
C[C@@]12CC([C@@]3(O)[C@H](O)C[C@H]4[C@@H]5C[C@H]6O[C@]67[C@@H](O)C=CC(=O)[C@]7(C)[C@H]5CC[C@@]43C)[C@@H](C1)OC(=O)[C@]2(C)O (stereo partly drawn) [ANOMANOLIDE C]	2.8 (≈ 5.57 µM)	1.58 (≈ 3.14 µM)	8.01 (≈ 15.9 µM)		1.85 (≈ 3.68 µM)	4.41 (≈ 8.77 µM)
C[C@@]12CC([C@@]3(O)[C@H](O)C[C@H]4[C@@H]5C[C@H](Cl)[C@]6(O)[C@@H](O)C=CC(=O)[C@]6(C)[C@H]5CC[C@@]43C)[C@@H](C1)OC(=O)[C@]2(C)O (stereo partly drawn) [ANOMANOLIDE D]	> 20	> 20	> 20		19 (≈ 35.3 µM)	> 20
C[C@@]12CC([C@@]3(O)[C@H](O)C[C@H]4[C@@H]5C[C@H](O)[C@]6(O)CC=CC(=O)[C@]6(C)[C@H]5CC[C@@]43C)[C@@H](C1)OC(=O)[C@]2(C)O (stereo partly drawn) [ANOMANOLIDE E]	> 20	> 20	> 20		> 20	> 20
C[C@@]12CC([C@@]3(O)[C@H](O)C[C@H]4[C@@H]5CC[C@]6(O)[C@@H](O)C=CC(=O)[C@]6(C)[C@H]5CC[C@@]43C)[C@@H](C1)OC(=O)[C@]2(C)O (stereo partly drawn) [ANOMANOLIDE F]	> 20	> 20	> 20		> 20	> 20
COc1cccc2c1C(=O)c1c(O)c3c(c(O)c1C2=O)C[C@@](O)(C(=O)CO)C[C@@H]3O[C@H]1C[C@H](N)[C@H](O)[C@H](C)O1 [DOXORUBICIN]	0.42 (≈ 0.773 µM)	0.19 (≈ 0.35 µM)		0.77 (≈ 1.42 µM)	0.45 (≈ 0.828 µM)	0.46 (≈ 0.846 µM)
CC1=C(C)C(=O)O[C@@H]([C@@H](C)[C@@]23O[C@@H]2C[C@H]2[C@@H]4C[C@H]5O[C@]56[C@@H](O)C=CC(=O)[C@]6(C)[C@H]4CC[C@@]23C)C1 [TUBOCAPSANOLIDE A]	0.47 (≈ 1 µM)	0.22 (≈ 0.469 µM)	1.47 (≈ 3.14 µM)	0.73 (≈ 1.56 µM)	0.42 (≈ 0.896 µM)	0.86 (≈ 1.84 µM)
CC1=C(C)C(=O)O[C@@H]([C@@H](C)[C@@]2(C)C3=C(C[C@H]2O)[C@@H]2C[C@H](O)[C@]4(O)[C@@H](O)C=CC(=O)[C@]4(C)[C@H]2CC3)C1 [TUBOCAPSENOLIDE F]	6.04 (≈ 12.4 µM)	8.41 (≈ 17.3 µM)	14.7 (≈ 30.2 µM)		15.1 (≈ 31 µM)	> 20
CC1=C(C)C(=O)O[C@@H]([C@@H](C)[C@@]2(C)C3=C(C[C@H]2O)[C@@H]2C[C@H](Cl)[C@]4(O)[C@@H](O)C=CC(=O)[C@]4(C)[C@H]2CC3)C1 [TUBOCAPSENOLIDE G]	19.9 (≈ 39.5 µM)	> 20	> 20		> 20	19.1 (≈ 37.9 µM)
C[C@]1(O)C[C@H]2OC(=O)[C@]1(C)C[C@H]2[C@@]1(O)[C@H](O)C[C@H]2[C@@H]3C[C@H](Cl)[C@]4(O)[C@@H](O)C=CC(=O)[C@]4(C)[C@H]3CC[C@@]21C [TUBONOLIDE A]	5.91 (≈ 11 µM)	> 20	12 (≈ 22.3 µM)		6.54 (≈ 12.1 µM)	5.09 (≈ 9.44 µM)
CC1=C(CO)C(=O)O[C@@H]([C@@H](C)[C@H]2CC[C@H]3[C@@H]4C[C@H]5O[C@]56[C@@H](O)C=CC(=O)[C@]6(C)[C@H]4CC[C@]23C)C1 [WITHAFERIN A]	0.02 (≈ 0.0425 µM)	0.02 (≈ 0.0425 µM)	0.05 (≈ 0.106 µM)	0.07 (≈ 0.149 µM)	0.06 (≈ 0.127 µM)	0.06 (≈ 0.127 µM)
